In US20100125059A1, “1-BIARYLAZETIDINONE DERIVATIVE” (Teijin Pharma Limited, priority 2007, published 2010) one finds LDL cholesterol-lowering effect, inhibition and inhibition in vivo data, which are given here for two compounds.

Where two headings read alike, the source gives them in different places.

For experiment [1] the following is noted: either alone or in the presence of a statin; cited from earlier work.
For experiment [2], the system named is Caco-2 cells. The experiment in a line: Cholesterol absorption inhibition assay (in vitro), [14C] cholesterol mixed micelles. In kind it is cell-based. Particulars: Homo sapiens, concentration of 10 μM, 24 hours, read-out: cholesterol absorption inhibitory activity. The method in brief:
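Caco-2 cells cultured 2 weeks, then incubated 24 h at 37° C with [14C] cholesterol mixed micelles (oleate, phosphatidylcholine, taurocholate) plus compound at 0.5 to 25 μM final. Lipids extracted, cholesteryl ester separated by TLC and quantified by imaging plate; inhibition as background-corrected percentage of solvent control.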

The subject of experiment [3] is hamsters fed a high cholesterol diet. The experiment in a line: Measurement of lipid lowering effect in hamsters fed a high cholesterol diet. In kind it is in vivo, Male Golden Syrian hamsters. Particulars: Mesocricetus auratus, po, 168 h, dose 0.1 mg/kg, gavage once daily, 7 days. The method in brief:
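Male Golden Syrian hamsters (6/group) on 0.5% cholesterol diet, dosed by gavage once daily in corn oil at 0.01 to 10 mg/kg; serum and liver sampled 4 h after last dose. TC, TG and LDL-C measured enzymatically; effects expressed as % suppression versus control and normal-diet groups.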

With `O=C1[C@H](CC[C@H](O)c2ccc(F)cc2)[C@@H](c2ccc(O)cc2)N1c1ccc(F)cc1` [Ezetimibe, (3R,4S)-3-[(3S)-3-(4-fluorophenyl)-3-hydroxypropyl]-1-(4-fluorophenyl)-4-(4-hydroxyphenyl)azetidin-2-one], in experiment [1], the LDL cholesterol-lowering effect is given as 15-20%.
`COc1cc(O)ccc1[C@@H]1[C@@H](SC[C@H](O)c2ccc(F)cc2)C(=O)N1c1ccc(-c2cccnc2)cc1` [Example 24, (3R,4R)-3-[(2R)-2-(4-fluorophenyl)-2-hydroxyethylthio]-4-(4-hydroxy-2-methoxyphenyl)-1-[4-(pyridin-3-yl)phenyl]azetidin-2-one]: the inhibition at 10 µM in experiment [2] is at least 50%. The inhibition in vivo at 0.1 mg/kg in experiment [3] (read-out: liver TC lowering effect (suppression rate of an increase in liver TC concentration)) and in experiment [3] (read-out: serum TC lowering effect (suppression rate of an increase in serum TC concentration)) was at least 50% each time.
